Assays:
[1] = target: P-glycoprotein 1 and 3 (MDR1a/MDR1b) (Mus musculus, UniProt P21447+P06795); experiment: TP_TRANSPORTER: increase in brain concentration in mdr1a/1b(-/-) mouse; type: functional, organism-based; conditions: in vivo
[2] = target: Multidrug resistance-associated protein 1 (Homo sapiens, UniProt P33527); experiment: TP_TRANSPORTER: decrease in intracellular accumulation in HL60 and HL60/ADM cells; type: functional, cell-based
Chain of Multidrug resistance-associated protein 1 (P33527 whole entry): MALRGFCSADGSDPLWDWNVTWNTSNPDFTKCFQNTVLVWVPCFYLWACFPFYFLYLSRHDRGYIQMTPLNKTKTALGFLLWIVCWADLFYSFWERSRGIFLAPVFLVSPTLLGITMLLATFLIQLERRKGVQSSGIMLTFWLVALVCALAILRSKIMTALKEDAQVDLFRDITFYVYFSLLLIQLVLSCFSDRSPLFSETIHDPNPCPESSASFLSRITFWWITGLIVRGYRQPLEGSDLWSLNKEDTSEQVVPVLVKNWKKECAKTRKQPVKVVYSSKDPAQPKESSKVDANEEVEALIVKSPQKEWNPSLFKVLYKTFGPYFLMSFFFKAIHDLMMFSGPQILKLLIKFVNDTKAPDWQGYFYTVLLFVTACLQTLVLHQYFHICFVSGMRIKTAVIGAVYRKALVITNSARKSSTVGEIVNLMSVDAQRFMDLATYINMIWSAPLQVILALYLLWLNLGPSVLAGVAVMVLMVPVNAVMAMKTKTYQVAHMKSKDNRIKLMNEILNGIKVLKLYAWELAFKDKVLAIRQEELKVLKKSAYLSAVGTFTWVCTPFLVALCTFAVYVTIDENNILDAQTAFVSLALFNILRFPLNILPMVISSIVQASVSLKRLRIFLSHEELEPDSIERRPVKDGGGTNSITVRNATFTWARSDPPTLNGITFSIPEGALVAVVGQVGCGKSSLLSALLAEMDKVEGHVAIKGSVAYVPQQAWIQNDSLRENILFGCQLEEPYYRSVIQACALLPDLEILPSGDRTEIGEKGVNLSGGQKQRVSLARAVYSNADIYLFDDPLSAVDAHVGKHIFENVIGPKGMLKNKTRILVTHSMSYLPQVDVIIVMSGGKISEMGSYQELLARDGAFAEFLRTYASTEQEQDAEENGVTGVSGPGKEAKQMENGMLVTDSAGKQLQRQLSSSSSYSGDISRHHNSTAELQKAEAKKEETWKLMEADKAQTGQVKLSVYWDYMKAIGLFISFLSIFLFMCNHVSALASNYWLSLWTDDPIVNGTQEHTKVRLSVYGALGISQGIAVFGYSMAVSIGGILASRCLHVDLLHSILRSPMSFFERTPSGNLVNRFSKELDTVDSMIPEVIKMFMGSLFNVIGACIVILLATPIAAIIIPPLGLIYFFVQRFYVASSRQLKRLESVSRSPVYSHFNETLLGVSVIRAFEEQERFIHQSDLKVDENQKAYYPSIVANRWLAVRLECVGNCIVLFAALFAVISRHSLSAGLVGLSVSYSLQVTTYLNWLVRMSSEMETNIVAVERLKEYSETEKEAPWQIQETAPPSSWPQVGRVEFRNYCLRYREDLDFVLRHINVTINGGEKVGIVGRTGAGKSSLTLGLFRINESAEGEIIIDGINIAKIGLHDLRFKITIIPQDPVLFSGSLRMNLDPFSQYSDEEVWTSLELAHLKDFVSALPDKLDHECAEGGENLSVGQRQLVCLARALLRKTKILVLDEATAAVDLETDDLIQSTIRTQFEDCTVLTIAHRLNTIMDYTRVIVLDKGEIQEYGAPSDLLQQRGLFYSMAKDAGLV

| Activity [1] | Activity [2] | Structure (SMILES) |
| --- | --- | --- |
| substrate [+] |  | C[C@@H]1CN(c2c(F)c(N)c3c(=O)c(C(=O)O)cn(C4CC4)c3c2F)C[C@H](C)N1 [SPARFLOXACIN] |
|  | substrate [+] | Cc1c(F)c(N2CCNC(C)C2)cc2c1c(=O)c(C(=O)O)cn2C1CC1 (configuration not stated) [GREPAFLOXACIN] |

Source: ChEMBL document CHEMBL2074572, “Limited distribution of new quinolone antibacterial agents into brain caused by multiple efflux transporters at the blood-brain barrier” (J Pharmacol Exp Ther, 2000)
